# Measured values as given in patent US20090176817A1, “Method of Treatment of Diarrhea-Predominant Irritable Bowel Syndrome in a Subject” (priority 2005, published 2009).
# Test system: diarrhea-predominant IBS subjects
# Assay: Study S241.3.011: weekly diary questions on adequate relief
# Type: in vivo, human
# Conditions: for Overall responder rate, adequate relief of IBS symptoms / Overall responder rate, adequate relief of abdominal pain/discomfort / Overall responder rate, adequate relief of abnormal bowel habits: observed case
# Procedure: Study S241.3.011 was a Phase III, double-blind, placebo-controlled, randomized, multinational study to investigate the safety and efficacy of 2 mg TID of cilansetron for a period of 12 weeks followed by a rerandomized, placebo-controlled four-week treatment period, in diarrhea-predominant IBS subjects. The study was conducted in six countries including the US. A total of 2115 subjects consented to participate, and 770 subjects were randomized. A total of 746 subjects were analyzed for efficacy and 755 subjects were analyzed for safety. Diagnosis and main criteria for inclusion were IBS subjects satisfying the Rome I criteria (1992); the diarrhea predominant sub-population of the Rome II criteria; and a minimum abdominal pain/discomfort, stool frequency and consistency determined during the run-in period. Subjects were treated with cilansetron 2 mg tablets given orally TID or matching placebo tablets given orally TID for 12 weeks followed by a rerandomized, placebo-controlled four-week treatment period.
# The primary efficacy parameter was the number of months that a subject was a responder for IBS symptoms (abdominal pain, abdominal discomfort, abnormal bowel habits) over the 12-week treatment period. A responder for a month (monthly responder) was defined as a subject who answered the weekly question with “yes” at least twice for that month. The two main secondary efficacy parameters were the monthly responder rates based on the “adequate relief” questions regarding abdominal pain/discomfort and abnormal bowel habits during the 12-week treatment period. The overall response rate and responder rate for the weekly diary questions on adequate relief at each month and all months, the adequate relief rate, the number of subjects with adequate relief by week, daily diary questions, IBS-QOL scores, and the interruption of activities were also assessed. Safety was evaluated by physical examination, ECG, vital signs, laboratory evaluations, concomitant medications, and AEs.
# Subjects who were initially randomized to the cilansetron 2 mg TID group and rerandomized to placebo, will be referred to as the C/P treatment group; subjects initially randomized to the placebo group and rerandomized to placebo will be referred to as the P/P treatment group; the P/C and C/C treatment group nomenclature follow the same principle. Of the 591 subjects who completed the three-month treatment period, 576 subjects were rerandomized and thus divided into the following treatment groups: 150 subjects in the C/C treatment group, 140 subjects in the C/P treatment group, 136 subjects in the P/C treatment group, and 150 subjects in the P/P treatment group. Of the 576 subjects rerandomized, a higher percentage of subjects in the C/C treatment group (99%) completed the study compared with the C/P (95%), P/C (93%), and the P/P (95%) treatment groups.
# Studies S24 1.3.OO6, S24 1.3.0 1 1, and S24 1.3.009 used the following efficacy measurements: • The subjects answered the following three questions with “yes” or “no” using a phone diary at the end of each week: • a) During the last week, did you experience adequate relief of your IBS symptoms, such as abdominal pain, abdominal discomfort, abnormal bowel habits? • b) During the last week, did you experience adequate relief of your abdominal pain and/or discomfort? • c) During the last week, did you experience adequate relief of your abnormal bowel habits? • The subjects rated the following symptoms using the phone diary at the end of each day: • abdominal pain/discomfort (five-point scale); • stool consistency (seven-point Bristol Stool Scale); • stool frequency (number of bowel movements each day); • urgency (five-point scale); • straining (yes or no); • feeling of incomplete defecation (yes or no); • bloating or feeling of abdominal distension (five-point scale). • In Studies S241 A006 and S241.3.009, subjects completed the IBS-QOL Survey at Baseline (Day 1) and at the end of treatment. […]
# [1] = Female subjects, three-month treatment period, monthly LOCF, ITT, 2 mg TID
# [2] = Female subjects, three-month treatment period, ITT, 2 mg TID
# [3] = Male subjects, three-month treatment period, monthly LOCF, ITT, 2 mg TID
# [4] = Male subjects, three-month treatment period, ITT, 2 mg TID
# [5] = RR Group C/C (cilansetron 2 mg TID, rerandomized to cilansetron)
# [6] = RR Group C/P (cilansetron 2 mg TID, rerandomized to placebo)
compound,measurement,setting,value
"Cc1nccn1C[C@H]1CCc2c(c3cccc4c3n2CCC4)C1=O [Cilansetron, (R)-(−)-4,5,6,8,9,10-hexahydro-10-[(2-methyl-1H-imidazol-1-yl)methyl]-11H-pyrido-[3,2,1-jk]-carbazol-11-one]",Number of months a subject was a responder: Three months (Abnormal bowel habits),[1],101 (39) n (%)
same,Number of months a subject was a responder: Three months (IBS symptoms),[1],96 (37) n (%)
same,Number of months a subject was a responder: Two months (Abdominal pain/discomfort),[1],57 (22) n (%)
same,Number of months a subject was a responder: Two months (Abnormal bowel habits),[1],48 (18) n (%)
same,Number of months a subject was a responder: Two months (IBS symptoms),[1],52 (20) n (%)
same,Number of months a subject was a responder: Zero months (Abdominal pain/discomfort),[1],74 (28) n (%)
same,Number of months a subject was a responder: Zero months (Abnormal bowel habits),[1],79 (30) n (%)
same,Number of months a subject was a responder: Zero months (IBS symptoms),[1],79 (30) n (%)
same,"Overall responder rate, adequate relief of IBS symptoms",[2],138 (53) n (%)
same,"Overall responder rate, adequate relief of abdominal pain/discomfort",[2],151 (58) n (%)
same,"Overall responder rate, adequate relief of abnormal bowel habits",[2],140 (53) n (%)
same,Number of months a subject was a responder: One month (Abdominal pain/discomfort),[3],15 (13) n (%)
same,Number of months a subject was a responder: One month (Abnormal bowel habits),[3],16 (14) n (%)
same,Number of months a subject was a responder: One month (IBS symptoms),[3],19 (17) n (%)
same,Number of months a subject was a responder: Three months (Abdominal pain/discomfort),[3],58 (50) n (%)
same,Number of months a subject was a responder: Three months (Abnormal bowel habits),[3],48 (42) n (%)
same,Number of months a subject was a responder: Three months (IBS symptoms),[3],52 (45) n (%)
same,Number of months a subject was a responder: Two months (Abdominal pain/discomfort),[3],15 (13) n (%)
same,Number of months a subject was a responder: Two months (Abnormal bowel habits),[3],18 (16) n (%)
same,Number of months a subject was a responder: Two months (IBS symptoms),[3],18 (16) n (%)
same,Number of months a subject was a responder: Zero months (Abdominal pain/discomfort),[3],27 (23) n (%)
same,Number of months a subject was a responder: Zero months (Abnormal bowel habits),[3],33 (29) n (%)
same,Number of months a subject was a responder: Zero months (IBS symptoms),[3],26 (23) n (%)
same,"Overall responder rate, adequate relief of IBS symptoms",[4],68 (59) n (%)
same,"Overall responder rate, adequate relief of abdominal pain/discomfort",[4],70 (61) n (%)
same,"Overall responder rate, adequate relief of abnormal bowel habits",[4],63 (55) n (%)
same,"Responder rate, abdominal pain/discomfort",Peru,69%
same,"Responder rate, abnormal bowel habits",Peru,75%
same,"Δ Month 4 vs Month 3, responder rate, Adequate Relief of Abdominal Pain/Discomfort",RR Group C/C,0%
same,"Δ Month 4 vs Month 3, responder rate, Adequate Relief of Abnormal Bowel Habits",RR Group C/C,+2%
same,"Δ Month 4 vs Month 3, responder rate, Adequate Relief of IBS Symptoms",RR Group C/C,+3%
same,"Monthly responder rate, Adequate Relief of Abdominal Pain/Discomfort, Month 3",[5],70%
same,"Monthly responder rate, Adequate Relief of Abdominal Pain/Discomfort, Month 4",[5],70%
same,"Monthly responder rate, Adequate Relief of Abnormal Bowel Habits, Month 3",[5],68%
same,"Monthly responder rate, Adequate Relief of Abnormal Bowel Habits, Month 4",[5],70%
same,"Monthly responder rate, Adequate Relief of IBS Symptoms, Month 3",[5],66%
same,"Monthly responder rate, Adequate Relief of IBS Symptoms, Month 4",[5],69%
same,"Δ Month 4 vs Month 3, responder rate, Adequate Relief of Abdominal Pain/Discomfort",RR Group C/P,−16%
same,"Δ Month 4 vs Month 3, responder rate, Adequate Relief of Abnormal Bowel Habits",RR Group C/P,−18%
same,"Δ Month 4 vs Month 3, responder rate, Adequate Relief of IBS Symptoms",RR Group C/P,−22%
same,"Monthly responder rate, Adequate Relief of Abdominal Pain/Discomfort, Month 3",[6],66%
same,"Monthly responder rate, Adequate Relief of Abdominal Pain/Discomfort, Month 4",[6],50%
same,"Monthly responder rate, Adequate Relief of Abnormal Bowel Habits, Month 3",[6],60%
same,"Monthly responder rate, Adequate Relief of Abnormal Bowel Habits, Month 4",[6],42%
same,"Monthly responder rate, Adequate Relief of IBS Symptoms, Month 3",[6],61%
same,"Monthly responder rate, Adequate Relief of IBS Symptoms, Month 4",[6],39%
same,"Overall responder rate, IBS symptoms","entire four months, C/C group",66%
same,"Overall responder rate, abdominal pain/discomfort","entire four months, C/C group",70%
same,"Overall responder rate, abnormal bowel habits","entire four months, C/C group",69%
same,"Overall responder rate, IBS symptoms",females,53%
same,"Overall responder rate, abdominal pain/discomfort",females,58%
same,"Overall responder rate, abnormal bowel habits",females,53%
same,"Overall responder rate, IBS symptoms",males,59%
same,"Overall responder rate, abdominal pain/discomfort",males,61%
same,"Overall responder rate, abnormal bowel habits",males,55%
same,"Overall responder rate, IBS symptoms",non-Caucasians,66%
same,"Overall responder rate, abdominal pain/discomfort",non-Caucasians,66%
same,"Overall responder rate, abnormal bowel habits",non-Caucasians,70%
